Laboratory results as given in ChEMBL document CHEMBL4017452, “Novel boronic acid derivatives of bis(indolyl) methane as anti-MRSA agents” (2017).
≈ marks a conversion by molar mass, not a printed value. Calls of active or inactive are those of the source. No cut-off for these calls is given here.

Assays:
[1] = system: Staphylococcus aureus; assay: Antibacterial activity against methicillin-resistant Staphylococcus aureus clinical isolates after 18 hrs by CLSI method; format: functional
[2] = system: Staphylococcus aureus; assay: Bactericidal activity against methicillin-resistant Staphylococcus aureus at 0.8 to 4 ug/ml; format: functional
[3] = system: Staphylococcus aureus; assay: Binding affinity to methicillin-resistant Staphylococcus aureus [(Ac)2-L-Lys-D-Ala-/-D-Ala] by isothermal titration calorimetric method
[4] = system: Staphylococcus aureus; assay: Binding affinity to methicillin-resistant Staphylococcus aureus [(Ac)2-L-Lys-D-Ala-/-D-Ala] assessed as change in entropy by isothermal titration calorimetric method
[5] = system: Staphylococcus aureus; assay: Binding affinity to methicillin-resistant Staphylococcus aureus [(Ac)2-L-Lys-D-Ala-/-D-Ala] assessed as change in enthalpy by isothermal titration calorimetric method
[6] = system: Staphylococcus aureus; assay: Bactericidal activity against methicillin-resistant Staphylococcus aureus at 1.6 to 8 ug/ml; format: functional

Compound	MIC [1] [µg/mL]	also measured
COc1ccc2[nH]cc(C(c3ccc([N+](=O)[O-])cc3)c3c[nH]c4ccc(OC)cc34)c2c1	> 1000	–
O=[N+]([O-])c1ccc2[nH]cc(C(c3ccc(C(c4c[nH]c5ccc([N+](=O)[O-])cc45)c4c[nH]c5ccc([N+](=O)[O-])cc45)cc3)c3c[nH]c4ccc([N+](=O)[O-])cc34)c2c1	500 (≈ 670 µM)	–
COc1ccc2[nH]cc(C(c3ccc(C)cc3)c3c[nH]c4ccc(OC)cc34)c2c1	> 1000	–
Cc1ccc(C(c2c[nH]c3ccc(Br)cc23)c2c[nH]c3ccc(Br)cc23)cc1	62.5 (≈ 126 µM)	–
COc1ccc2[nH]cc(C(c3ccccc3[N+](=O)[O-])c3c[nH]c4ccc(OC)cc34)c2c1	500 (≈ 1170 µM)	–
Brc1ccc(C(c2c[nH]c3ccccc23)c2c[nH]c3ccccc23)cc1	500 (≈ 1250 µM)	–
O=[N+]([O-])c1ccc(C(c2c[nH]c3ccccc23)c2c[nH]c3ccccc23)cc1	500 (≈ 1360 µM)	–
O=[N+]([O-])c1ccc2[nH]cc(C(c3ccc(Br)cc3)c3c[nH]c4ccc([N+](=O)[O-])cc34)c2c1	500 (≈ 1020 µM)	–
Brc1ccc2[nH]cc(C(c3ccccc3)c3c[nH]c4ccc(Br)cc34)c2c1	> 1000	–
O=[N+]([O-])c1cccc(C(c2c[nH]c3ccccc23)c2c[nH]c3ccccc23)c1	15.6 (≈ 42.5 µM)	–
OB(O)c1ccccc1C(c1c[nH]c2ccccc12)c1c[nH]c2ccccc12	3.91 (≈ 10.7 µM)	Activity [2]: Active
OB(O)c1cccc(C(c2c[nH]c3ccccc23)c2c[nH]c3ccccc23)c1	3.91 (≈ 10.7 µM)	Activity [2]: Active; K [3]: 242 M⁻¹; deltaS [4]: -59.5 cal/mol/deg; deltaH [5]: -0.0494 kcal/mol
COc1ccc2[nH]cc(C(c3ccc(N(C)C)cc3)c3c[nH]c4ccc(OC)cc34)c2c1	> 1000	–
CN(C)c1ccc(C(c2c[nH]c3ccccc23)c2c[nH]c3ccccc23)cc1	> 1000	–
O=[N+]([O-])c1ccccc1C(c1c[nH]c2ccccc12)c1c[nH]c2ccccc12	500 (≈ 1360 µM)	–
O=[N+]([O-])c1ccc(C(c2c[nH]c3ccc([N+](=O)[O-])cc23)c2c[nH]c3ccc([N+](=O)[O-])cc23)cc1	31.2 (≈ 68.3 µM)	–

Compound	MIC [1] [µg/mL]	also measured
c1ccc(C(c2c[nH]c3ccccc23)c2c[nH]c3ccccc23)cc1	> 1000	–
Cc1ccc(C(c2c[nH]c3ccccc23)c2c[nH]c3ccccc23)cc1	> 1000	–
Brc1ccc(C(c2c[nH]c3ccc(Br)cc23)c2c[nH]c3ccc(Br)cc23)cc1	31.2 (≈ 55.9 µM)	–
O=Cc1ccc(C(c2c[nH]c3ccccc23)c2c[nH]c3ccccc23)cc1	500 (≈ 1430 µM)	–
COc1ccc2[nH]cc(C(c3ccc(Br)cc3)c3c[nH]c4ccc(OC)cc34)c2c1	62.5 (≈ 135 µM)	–
COc1ccc2[nH]cc(C(c3ccc(C(c4c[nH]c5ccc(OC)cc45)c4c[nH]c5ccc(OC)cc45)cc3)c3c[nH]c4ccc(OC)cc34)c2c1	500 (≈ 728 µM)	–
OB(O)c1ccc(C(c2c[nH]c3ccccc23)c2c[nH]c3ccccc23)cc1	7.81 (≈ 21.3 µM)	Activity [6]: Active
COc1ccc2[nH]cc(C(c3ccc(/C=N/Nc4ccc([N+](=O)[O-])cc4[N+](=O)[O-])cc3)c3c[nH]c4ccc(OC)cc34)c2c1	250 (≈ 423 µM)	–
O=[N+]([O-])c1ccc(N/N=C/c2ccc(C(c3c[nH]c4ccccc34)c3c[nH]c4ccccc34)cc2)c([N+](=O)[O-])c1	500 (≈ 942 µM)	–
COc1ccc(C(c2c[nH]c3ccc([N+](=O)[O-])cc23)c2c[nH]c3ccc([N+](=O)[O-])cc23)cc1	> 1000	–
COc1ccc(C(c2c[nH]c3ccc(OC)cc23)c2c[nH]c3ccc(OC)cc23)cc1	> 1000	–
COc1ccc2[nH]cc(C(c3ccccc3)c3c[nH]c4ccc(OC)cc34)c2c1	> 1000	–
O=[N+]([O-])c1ccc(C(c2c[nH]c3ccc(Br)cc23)c2c[nH]c3ccc(Br)cc23)cc1	15.6 (≈ 29.7 µM)	–
Cc1ccc(C(c2c[nH]c3ccc([N+](=O)[O-])cc23)c2c[nH]c3ccc([N+](=O)[O-])cc23)cc1	> 1000	–
c1ccc2c(C(c3ccc(C(c4c[nH]c5ccccc45)c4c[nH]c5ccccc45)cc3)c3c[nH]c4ccccc34)c[nH]c2c1	1000 (≈ 1760 µM)	–
